In EP4635958A1, “PYRIMIDINE-CONTAINING POLYCYCLIC DERIVATIVE INHIBITOR, AND PREPARATION METHOD THEREFOR AND USE THEREOF” (Shanghai Hansoh Biomedical Co., Ltd., priority 2022, dated 2024):
Where two headings read alike, the source gives them in different places.

Experiments:
[1] = Pharmacokinetic determination in mice (IV and PO, plasma, LCMS/MS); type: in vivo, Balb/c mice; conditions: for half-life: read-out: T1/2 (converted)
Text: • 1. Study objective: Balb/c mice were used as test animals to study the pharmacokinetic behavior of the compounds in mice (plasma) after oral administration. • 2. Test scheme • 2.1 Test drugs: The example compounds of the present invention, made in house; • 2.2 Test animals: Balb/c mice, male, purchased from Shanghai Jiesijie Experimental Animal Co., Ltd., animal production license number (SCXK (Shanghai) 2013-0006 N0.311620400001794). • 2.3 Drug formulation: Formulation of a drug for oral administration: 10% Captisol in 50 mM citrate buffer pH 5.0.
(§1) Formulation of 50 mM citric acid: 4.8 g of citric acid was weighed into a 1000 ml glass bottle, ultrapure water was added to 300 ml, and the mixture was magnetically stirred until completely dissolved, additional ultrapure water was then added to 500 ml to formulate 50 mM citric acid.
(§2) Formulation of a solution containing 50 mM citric acid (10% Captisol, PH = 5): 50 g of Captisol powder was weighed and added to a 1000 ml glass bottle, 300 ml of 50 mM citric acid was added, and the mixture was magnetically stirred until completely dissolved, then additional citric acid was added to 500 ml, and the PH was adjusted to 5 using 10 M NaOH.
The example compounds were weighed and added to a 4 mL glass bottle separately, 2.4 mL of the solution was added and the mixture was subjected to ultrasound treatment for 10 min to obtain a colorless clear solution with a concentration of 3 mg/mL.
(§3) Formulation of a drug for intravenous administration: 5%DMSO+10%Solutol HS15+85%PBS.
(§4) The example compounds were weighed, and 5% DMSO was added according to the total administration volume; the mixture was vortexed and sonicated for 2 min to ensure complete dissolution; then, 10% Solutol HS15 was added, and the mixture was vortexed and sonicated for 2 min to achieve complete dissolution; finally, 85% PBS was added, and the mixture was vortexed and sonicated for 5 min; the obtained mixture was filtered through a 0.22 um membrane to obtain a colorless, transparent, and clear solution with a concentration of 0.2 mg/mL.
3 Balb/c mice, male; After overnight fasting, the animals were administered orally (PO) at a dose of 30 mg/kg with an administration volume of 10 mL/kg.
3 Balb/C mice, male; After overnight fasting, the animals were administered intravenously (IV) at a dose of 1 mg/kg with an administration volume of 5 mL/kg.
0.04 mL of blood was collected from the orbit before administration and at 0.25 h, 0.5 h, 1 h, 2 h, 4 h, 6 h, 8 h, and 24 h after administration and placed in an EDTA-2K test tube, and the test tube was centrifuged at 6000 rpm for 6 min at 4°C to separate the plasma, which was stored at -20°C; the animals were fed 4 h after administration.
The final determination results obtained by applying the LCMS/MS method are shown in the table below: Table 6: Pharmacokinetic parameters of the compounds administered intravenously in mice

GP2D = assay: Inhibition of proliferation of KRAS G12D mutant tumor cell line GP2D (CellTiter-Glo); conditions: read-out: GP2D IC50
[2] = Pharmacokinetic determination in rats (IV and PO, plasma, LCMS/MS); type: in vivo, SD rats; conditions: male SD rats; for F: PO 30 mg/kg vs IV 1 mg/kg; for AUC(0-inf): read-out: AUCo-∞; for half-life: read-out: T1/2 (converted)
Procedure: SD rats were used as test animals to study the pharmacokinetic behavior of the example compounds in rats (plasma) after oral administration.
The example compounds of the present invention, made in house.
3 SD rats per group, male. Shanghai Jiesijie Experimental Animal Co., Ltd., animal production license number (SCXK (Shanghai) 2013-0006 N0.311620400001794).
Formulation of a drug for oral administration: 10% Captisol in 50 mM citrate buffer pH 5.0.
as §1, §2
The example compounds were weighed and dissolved in the solution and the mixture was shaken well and subjected to ultrasound treatment for 15 min to obtain a colorless clear solution with a concentration of 3 mg/mL.
as §3, §4
3 SD rats per group, male; After overnight fasting, the animals were administered orally (PO) at a dose of 30 mg/kg with an administration volume of 10 mL/kg.
3 SD rats per group, male; After overnight fasting, the animals were administered intravenously (IV) at a dose of 1 mg/kg with an administration volume of 5 mL/kg.
0.2 mL of blood was collected from the jugular vein before administration and at 0.25 h, 0.5 h, 1.0 h, 2.0 h, 4.0 h, 6.0 h, 8.0 h, and 24.0 h after administration and placed in an EDTA-2K test tube, and the test tube was centrifuged at 6000 rpm for 6 min at 4°C to separate the plasma, which was stored at -20°C. the animals were fed 4 h after administration.
The final determination results obtained by applying the LCMS/MS method are shown in the table below: Table 8: Pharmacokinetic parameters of the compounds administered intravenously in rats

[3] = Plasma stability test, dog plasma; type: in vitro ADME; conditions: dog, plasma;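 also: parent compound left in dog plasma quantified by LC-MS with positive electrospray ionization, selected reaction monitoring and an internal standard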
Procedure: (§5) Liquid chromatography-mass spectrometer, centrifuge, vortexer, pipette, continuous dispenser, 96-well plate, 50% methanol aqueous solution, acetonitrile solution containing internal standard, blank matrix (plasma of rat, dog, or human), Propantheline (propantheline bromide), Mevinolin (lovastatin), and test compound.
(§6) After whole blood was collected from animals or humans, it was placed in a test tube containing an anticoagulant and centrifuged at 3500 rpm for 10 min to collect the upper pale yellow plasma.
(§7) The compound was weighed and the stock solution was formulated with DMSO and the working solution was formulated with 100 mM phosphate buffer.
(§8) • Instrument: API4000 liquid chromatography-mass spectrometer, AB Company, USA; • the ion source was electrospray ionization source (ESI); • drying gas (N2) temperature was 500°C; • electrospray voltage was 5500V; • the detection method was positive ion detection; • the scanning method was selected reaction monitoring (MRM); • the scanning time was 0.1s.

[4] = Plasma stability test, mouse plasma; type: in vitro ADME; conditions: mouse, plasma;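 also: test compound quantified by LC-MS using positive-mode electrospray ionization and MRM scanning, with an internal standard added in acetonitrile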
Procedure: as §5, §6, §7, §8

[5] = Plasma stability test, human plasma; type: in vitro ADME; conditions: human, plasma;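 also: test compound incubated in human plasma, quantified by LC-MS/MS (positive-ion ESI, MRM) against an internal standard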
Procedure: as §5, §6, §7, §8

[6] = rat, in vivo, IV, 1 mg/kg, overnight fasting, plasma
[7] = rat, in vivo, PO, 30 mg/kg, overnight fasting, plasma
[8] = rat, in vivo, PO, 30 mg/kg, overnight fasting, plasma, read-out: Cmax
[9] = rat, in vivo, PO, 30 mg/kg, overnight fasting, plasma, read-out: Tmax
[10] = IV, 1 mg/kg, overnight fasting, plasma
[11] = PO, 30 mg/kg, overnight fasting, plasma

## C#Cc1c(F)ccc2cc(O)cc(-c3nc4c5c(nc(OCC6(CN7CCC(=C(F)F)CC7)CC6)nc5c3F)N3C[C@H]5CC[C@H](N5)[C@H]3[C@H](CC)O4)c12 [Example 124, 4-((5S,5aS,6S,9R)-12-((1-((4-(difluoromethylene)piperidin-1-yl)methyl)cyclopropyl)methoxy)-5-ethyl-1-fluoro-5a,6,7,8,9,10-hexahydro-5H-4-oxa-3,10a,11,13,14-pentaaza-6,9-methylnaphtho[1,8-ab]hept-2-yl)-5-ethynyl-6-fluoronaphthalen-2-ol]
[1]; PO 30 mg/kg vs IV 1 mg/kg, male Balb/c mice
  F: 23%
[1]; mouse, in vivo, Balb/c mice, intravenously (IV), 1 mg/kg, plasma, read-out: AUCo-∞
  AUC(0-inf): 374 ng·h/mL
[1]; mouse, in vivo, Balb/c mice, intravenously (IV), 1 mg/kg, plasma, read-out: C0
  C0: 412 ng/mL
[1]; mouse, in vivo, Balb/c mice, intravenously (IV), 1 mg/kg, plasma, read-out: CL
  clearance: 44.6 mL/min/kg
[1]; mouse, in vivo, Balb/c mice, intravenously (IV), 1 mg/kg, plasma
  half-life: 11.5 h
[1]; mouse, in vivo, PO, 30 mg/kg, male Balb/c mice, overnight fasting, plasma, read-out: AUC0-∞
  AUC(0-inf): 2610 ng·h/mL
[1]; mouse, in vivo, PO, 30 mg/kg, male Balb/c mice, overnight fasting, plasma, read-out: Cmax
  Cmax: 391 ng/mL
[1]; mouse, in vivo, PO, 30 mg/kg, male Balb/c mice, overnight fasting, plasma
  half-life: 6.6 h
[1]; mouse, in vivo, PO, 30 mg/kg, male Balb/c mice, overnight fasting, plasma, read-out: Tmax
  Tmax: 1 h
GP2D; Homo sapiens, GP2d, 72 h
  IC50: 0.98 nM
[2]
  F: 18%
[2]; [6]
  AUC(0-inf): 1110 ng·h/mL
  half-life: 9 h
[2]; rat, in vivo, IV, 1 mg/kg, overnight fasting, plasma, read-out: C0
  C0: 524 ng/mL
[2]; rat, in vivo, IV, 1 mg/kg, overnight fasting, plasma, read-out: CL
  clearance: 15 mL/min/kg
[2]; [7]
  AUC(0-inf): 6170 ng·h/mL
  half-life: 6.8 h
[2]; [8]
  Cmax: 471 ng/mL
[2]; [9]
  Tmax: 6 h

## C#Cc1c(F)ccc2cc(O)cc(-c3nc4c5c(nc(OCC6(CN7CC8CC(=C(F)F)CC8C7)CC6)nc5c3F)N3C[C@H]5CC[C@H](N5)[C@H]3[C@H](C)O4)c12 (stereo partly drawn) [Example 133]
GP2D; Homo sapiens, GP2d, 72 h
  IC50: 0.53 nM
[2]; [7]
  AUC(0-inf): 6510 ng·h/mL
  half-life: 7 h
[2]; [8]
  Cmax: 588 ng/mL
[2]; [9]
  Tmax: 4 h

## C#Cc1c(F)ccc2cc(O)cc(-c3nc4c5c(nc(OCC6(CN7C8CCC7CC(=C(F)F)C8)CC6)nc5c3F)N3C[C@H]5CC[C@H](N5)[C@H]3[C@H](C)O4)c12 [Example 134]
GP2D; Homo sapiens, GP2d, 72 h
  IC50: 1 nM

## C#Cc1c(F)ccc2cc(O)cc(-c3nc4c5c(nc(OCC6(CN7CCCC(=C(F)F)CC7)CC6)nc5c3F)N3C[C@H]5CC[C@H](N5)[C@H]3[C@H](CC)O4)c12 [Example 140]
GP2D; Homo sapiens, GP2d, 72 h
  IC50: 0.79 nM
[2]; [7]
  AUC(0-inf): 2280 ng·h/mL
  half-life: 11 h
[2]; [8]
  Cmax: 118 ng/mL
[2]; [9]
  Tmax: 2 h

## C#Cc1c(F)ccc2cc(O)cc(-c3nc4c5c(nc(OCC6(CN7CC8CC(=C(F)F)CC8C7)CC6)nc5c3F)N3C[C@H]5CC[C@H](N5)[C@H]3[C@H](CC)O4)c12 (stereo partly drawn) [Example 141]
GP2D; Homo sapiens, GP2d, 72 h
  IC50: 0.94 nM
[2]; [7]
  AUC(0-inf): 17300 ng·h/mL
  half-life: 18.9 h
[2]; [8]
  Cmax: 869 ng/mL
[2]; [9]
  Tmax: 2 h

## [2H]C([2H])([2H])[C@@H]1Oc2nc(-c3cc(O)cc4ccc(F)c(C#C)c34)c(F)c3nc(OC([2H])([2H])C4(C([2H])([2H])N5CCC(=CF)CC5)CC4)nc(c23)N2C[C@H]3CC[C@H](N3)[C@@H]12 [Example 298]
GP2D; Homo sapiens, GP2d, 72 h
  IC50: 0.28 nM

## CC[C@@H]1Oc2nc(-c3cc(N)cc(Cl)c3C(F)(F)F)c(F)c3nc(OCC4(CN5CCC(=CF)CC5)CC4)nc(c23)N2C[C@@H]3CC[C@@H](N3)[C@@H]12 [Example 322, 3-chloro-5-((5S,5aS,6R,9S)-5-ethyl-1-fluoro-12-((1-((4-(fluoromethylene)piperidin-1-yl)methyl)cyclopropyl)methoxy)-5a,6,7,8,9,10-hexahydro-5H-4-oxa-3,10a,11,13,14-pentaaza-6,9-methylnaphtho[1,8-ab]hept-2-yl)-4-(trifluoromethyl)aniline]
GP2D; proliferation, about 72 h, CellTiter-Glo
  IC50: 0.61 nM
[2]; [10]
  AUCo-∞: 219 ng·h/mL
  C0: 326 ng/mL
  CL: 76.2 mL/min/kg
  T1/2: 11.6 h
[2]
  F: 10%
[2]; [11]
  AUCo-∞: 694 ng·h/mL
  Cmax: 40 ng/mL
  T1/2: 10.4 h
  Tmax: 6.0 h

## C#Cc1c(F)ccc2cc(O)cc(-c3nc4c5c(nc(OCC6(CN7CCC(=NOC)C8(CC8)C7)CC6)nc5c3F)N3C[C@H]5CC[C@H](N5)[C@H]3[C@H](C)O4)c12 [Example 342, 5-((1-((((5S,5aS,6S,9R)-2-(8-ethynyl-7-fluoro-3-hydroxynaphthalen-1-yl)-1-fluoro-5-methyl-5a,6,7,8,9,10-hexahydro-5H-4-oxa-3,10a,11,13,14-pentaaza-6,9-methylnaphtho[1,8-ab]heptene-12-yl)oxy)methyl)cyclopropyl)methyl)-5-azaspiro[2.5]octan-8-one O-methyloxime]
GP2D; Homo sapiens, GP2d, 72 h
  IC50: 0.41 nM

## C#Cc1c(F)ccc2cc(O)cc(-c3nc4c5c(nc(OCC6(CN7CC8CCC7CC8=NOC)CC6)nc5c3F)N3C[C@H]5CC[C@H](N5)[C@H]3[C@H](C)O4)c12 [Example 345]
GP2D; Homo sapiens, GP2d, 72 h
  IC50: 0.18 nM

## CC(C)[N+](C)(CCOC(=O)C1c2ccccc2Oc2ccccc21)C(C)C [Propantheline bromide, propantheline bromide, reference compound]
[3]
  half-life: 1.34 h
[3]; 0 h
  Remaining rate (%) 0 min: 100.00%
[3]; 0.25 h
  Remaining rate (%) 15 min: 95.25%
[3]; 0.5 h
  Remaining rate (%) 30 min: 95.45%
[3]; 1 h
  Remaining rate (%) 60 min: 75.66%
[3]; 2 h
  Remaining rate (%) 120 min: 36.25%
[4]
  half-life: 0.462 h
[4]; 0 h
  Remaining rate (%) 0 min: 100.00%
[4]; 0.25 h
  Remaining rate (%) 15 min: 79.79%
[4]; 0.5 h
  Remaining rate (%) 30 min: 48.66%
[4]; 1 h
  Remaining rate (%) 60 min: 23.39%
[4]; 2 h
  Remaining rate (%) 120 min: 6.66%
[5]
  half-life: 0.27 h
[5]; 0 h
  Remaining rate (%) 0 min: 100.00%
[5]; 0.25 h
  Remaining rate (%) 15 min: 26.78%
[5]; 0.5 h
  Remaining rate (%) 30 min: 5.05%
[5]; 1 h
  Remaining rate (%) 60 min: 0.25%
[5]; 2 h
  Remaining rate (%) 120 min: 0.05%
